The text below walks through data of patent publication EP4516280A1, “COSMETIC COMPOSITIONS” (The Boots Company plc, priority 2023, dated 2025).

The experiment has as its system mushroom tyrosinase. The experiment can be described thus: Tyrosinase inhibition test (L-DOPA oxidation, absorbance at 470 nm). As to conditions: single compound, Concentration 0.1%. The class given is biochemical. An excerpt:
The tyrosinase inhibition test was used to determine the tyrosinase inhibition ability of the compounds. The test comprises adding the test compound to a solution of L-dihydroxyphenylalanine (L-(DOPA)) and mushroom tyrosinase. L-(DOPA) is converted to […] by the mushroom tyrosinase, causing a brown colour to form. Inhibition of this reaction prevents the brown colour formation. The lighter the colour at the end of the reaction, the stronger is the inhibitory effect of the active. Absorbance data may be collected using a plate reacted set up to have a kinetic read every 1 minute for 30 minutes, where absorbance is read at 470 nm.

On to `CCCCCCCCCCCCCCC[C@@H](O)[C@@H](N)CO` [K, Sphinganine], for which the “Tyrosinase Inhibition (%)” value is listed as -5.78%.

For the compound Feruloyl oligopeptide-33, the “Tyrosinase Inhibition (%)” value turned out to be 41.765%.

For the compound `CC1(C)[C@@H](O[C@H]2O[C@H](C(=O)[O-])[C@@H](O)[C@H](O)[C@H]2O[C@@H]2O[C@H](C(=O)[O-])[C@@H](O)[C@H](O)[C@H]2O)CC[C@]2(C)[C@H]3C(=O)C=C4[C@@H]5C[C@@](C)(C(=O)O)CC[C@]5(C)CC[C@@]4(C)[C@]3(C)CC[C@@H]12.[K+].[K+]` [H, Dipotassium glycyrrhizate (DPG)], the “Tyrosinase Inhibition (%)” value is listed as 54.567%.

Turning to `O=C(O)C(O)c1ccccc1` (centres unmarked) [B, Mandelic acid], the “Tyrosinase Inhibition (%)” value stood at 80.279%.

With `C=C(C)[C@@H]1CCC(C)=C[C@H]1c1c(O)cc(CCCCC)cc1O` [G, Cannabidiol isolate (CBD)], the “Tyrosinase Inhibition (%)” value was 9.134%.
